ChEMBL document CHEMBL1201862, “PubChem BioAssay data set” (2004)
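These data come from cells grown in 96-well plates and exposed to compound for 48 hours at five concentrations. At the GI50, growth is halved.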 Activity calls are given as the source filed them. No stated cut-off is given here; in the data, active = GI50 up to about 1.1 µM and inactive = higher.

What was measured:
Test in all cases: DTP human tumour cell line panel, 48 h
NCI-H522 = system: NCI-H522
CCRF-CEM = system: CCRF-CEM
A549 = system: A549
HCT-15 = system: HCT-15
HOP-92 = system: HOP-92
HL-60 = system: HL-60
MOLT-4 = system: MOLT-4
HOP-62 = system: HOP-62
786-0 = system: 786-0
Malme-3M = system: Malme-3M
UACC-62 = system: UACC-62
UACC-257 = system: UACC-257
SNB-19 = system: SNB-19
MDA-MB-435 = system: MDA-MB-435
T47D = system: T47D
MCF7 = system: MCF7
XF498 = system: XF498
NCI-H23 = system: NCI-H23
SF-539 = system: SF-539
KM12 = system: KM12

Measured: GI50

N#C/C(=C\c1cc(O)c(O)c(O)c1)C(N)=O
> 74.5 µM: HCT-15
inactive: NCI-H522 > 66.4 µM | CCRF-CEM 38.3 µM | A549 > 100 µM | HOP-92 98.2 µM | HL-60 37.8 µM | MOLT-4 52.5 µM | HOP-62 > 87.3 µM | 786-0 54.6 µM | Malme-3M > 100 µM | UACC-62 72.6 µM | UACC-257 > 100 µM | SNB-19 > 100 µM | MDA-MB-435 > 55.7 µM | T47D > 100 µM | MCF7 > 39.4 µM | XF498 > 100 µM | NCI-H23 > 100 µM | SF-539 > 100 µM | KM12 > 90.4 µM

CCN1CCC(O)(c2ccccc2)C(C(=O)c2ccccc2)C1 (stereo unspecified)
inactive: NCI-H522 2.62 µM | CCRF-CEM 15.7 µM | A549 > 67.1 µM | HOP-92 17.7 µM | HL-60 19.5 µM | MOLT-4 21.7 µM | HOP-62 > 100 µM | 786-0 17.1 µM | Malme-3M 21.1 µM | UACC-62 > 45.3 µM | UACC-257 19.6 µM | SNB-19 > 100 µM | XF498 16.3 µM | NCI-H23 > 53 µM | SF-539 62.5 µM | KM12 45.4 µM
26.9 µM: HCT-15

C=C1CN2CCc3c([nH]c4ccccc34)C2CC1CC(=O)N(C)C (stereo unspecified)
> 309 µM: HCT-15
inactive: NCI-H522 > 309 µM | CCRF-CEM > 309 µM | A549 > 309 µM | HOP-92 126 µM | HL-60 > 309 µM | MOLT-4 > 309 µM | HOP-62 > 309 µM | 786-0 > 309 µM | Malme-3M > 309 µM | UACC-62 > 309 µM | UACC-257 > 309 µM | SNB-19 > 309 µM | XF498 > 309 µM | NCI-H23 > 309 µM | SF-539 > 309 µM | KM12 > 309 µM

CC1(Cl)C(=O)NC(=O)N(C2CC(N=[N+]=[N-])C(CO)O2)C1N=[N+]=[N-] (stereo unspecified)
inactive: NCI-H522 > 100 µM | CCRF-CEM > 100 µM | A549 > 100 µM | HOP-92 > 100 µM | HL-60 > 100 µM | MOLT-4 > 100 µM | HOP-62 > 100 µM | 786-0 > 100 µM | Malme-3M > 100 µM | UACC-62 > 100 µM | UACC-257 > 100 µM | SNB-19 > 100 µM | XF498 > 100 µM | NCI-H23 > 100 µM | SF-539 > 100 µM | KM12 > 100 µM
> 100 µM: HCT-15

CCOC(=O)C(CNc1ccc(O)cc1)NC(=O)c1ccccc1 (stereo unspecified)
> 100 µM: HCT-15
inactive: NCI-H522 75.3 µM | CCRF-CEM 32.3 µM | A549 > 100 µM | HOP-92 > 100 µM | HL-60 25.6 µM | MOLT-4 50.8 µM | HOP-62 > 100 µM | 786-0 64.3 µM | Malme-3M > 100 µM | UACC-62 > 53.7 µM | UACC-257 > 100 µM | SNB-19 > 100 µM | XF498 > 100 µM | NCI-H23 > 100 µM | SF-539 > 100 µM | KM12 > 100 µM

CC(=O)/C(=C\c1ccco1)C(=O)Nc1ccccc1
> 100 µM: HCT-15
inactive: NCI-H522 > 100 µM | CCRF-CEM > 100 µM | A549 > 100 µM | HOP-92 > 100 µM | HL-60 > 100 µM | MOLT-4 > 100 µM | HOP-62 > 100 µM | 786-0 > 100 µM | Malme-3M > 100 µM | UACC-62 > 100 µM | UACC-257 > 100 µM | SNB-19 > 100 µM | XF498 > 100 µM | NCI-H23 > 100 µM | SF-539 > 100 µM | KM12 > 100 µM

NNC(=O)C1CCC(=O)N1S(=O)(=O)c1ccccc1 (stereo unspecified)
inactive: NCI-H522 > 100 µM | CCRF-CEM > 100 µM | A549 > 100 µM | HOP-92 > 100 µM | HL-60 > 100 µM | MOLT-4 > 100 µM | HOP-62 > 100 µM | 786-0 > 100 µM | Malme-3M > 100 µM | UACC-62 > 100 µM | UACC-257 > 100 µM | SNB-19 > 100 µM | XF498 > 100 µM | NCI-H23 > 100 µM | SF-539 > 100 µM | KM12 > 100 µM
> 100 µM: HCT-15

O=C1C=C2S[C@H]3C[C@]2(C=C1Br)C1=C(N3)C(=O)c2[nH]cc3c2C1=NCC3 [(+)-DISCORHABDIN B]
active: NCI-H522 0.273 µM | CCRF-CEM 0.234 µM | HOP-92 0.973 µM | HL-60 0.0853 µM | MOLT-4 0.148 µM | 786-0 0.883 µM | Malme-3M 0.115 µM | UACC-62 0.555 µM | UACC-257 0.213 µM | MDA-MB-435 0.158 µM | T47D 0.283 µM | MCF7 0.52 µM
inactive: A549 2.47 µM | SNB-19 12.4 µM | XF498 1.42 µM | NCI-H23 1.22 µM | SF-539 1.63 µM | KM12 1.6 µM
0.745 µM: HCT-15
